# Results as given in PubChem BioAssay (NCI).
#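 Cells were grown in 96-well plates and exposed to each compound for 48 hours at five concentrations; endpoints were interpolated linearly between bracketing concentrations, or set to the highest concentration if not reached. GI50 is the concentration that inhibits growth by half. Definition used: TGI = concentration required for complete inhibition of growth.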
# How the values were obtained:
# Experiment in all cases: inhibition of tumour cell growth, NCI panel, 48 h
# HCC-2998 colon = tested on: HCC-2998 colon
# MALME-3M melanoma = tested on: MALME-3M melanoma
# CCRF-CEM leukemia = tested on: CCRF-CEM leukemia
# HCT-116 colon = tested on: HCT-116 colon
# KM12 colon = tested on: KM12 colon
# UACC-257 melanoma = tested on: UACC-257 melanoma
# UACC-62 melanoma = tested on: UACC-62 melanoma
# HCT-15 colon = tested on: HCT-15 colon
# NCI-H226 lung = tested on: NCI-H226 lung
# TK-10 renal = tested on: TK-10 renal
SMILES,GI50 (HCC-2998 colon),TGI (HCC-2998 colon),GI50 (MALME-3M melanoma),TGI (MALME-3M melanoma),GI50 (CCRF-CEM leukemia),TGI (CCRF-CEM leukemia),GI50 (HCT-116 colon),TGI (HCT-116 colon),GI50 (KM12 colon),TGI (KM12 colon),GI50 (UACC-257 melanoma),TGI (UACC-257 melanoma),GI50 (UACC-62 melanoma),TGI (UACC-62 melanoma),GI50 (HCT-15 colon),TGI (HCT-15 colon),GI50 (NCI-H226 lung),TGI (NCI-H226 lung),GI50 (TK-10 renal),TGI (TK-10 renal)
COc1ccc(OC(=O)O[C@H]2[C@H](O[C@H]3[C@@H](O)COC(O[C@H]4C[C@H]5[C@@H]6CC=C7C[C@@H](O)CC[C@]7(C)[C@H]6CC[C@]5(C)[C@H]4[C@H](C)C(=O)CCC(C)C)[C@@H]3OC(C)=O)OC[C@@H](O)[C@@H]2O)cc1 (stereo not given in full),4.91 µM,21.4 µM,0.122 µM,3.84 µM,< 0.01 µM,0.145 µM,0.0621 µM,14.1 µM,0.682 µM,19.7 µM,0.172 µM,0.52 µM,0.0171 µM,0.0516 µM,1.29 µM,11.4 µM,0.58 µM,18.7 µM,2.24 µM,21.1 µM
CCN(CC)C(=O)C/C(C)=N/NC(=O)c1ccncc1,–,> 100 µM,–,> 100 µM,–,> 100 µM,–,> 100 µM,–,> 100 µM,–,> 100 µM,–,> 100 µM,–,–,–,> 100 µM,–,> 100 µM
COc1ccc(C(=O)O)c(Cc2cccc3ccccc23)c1,–,> 100 µM,–,> 100 µM,–,> 100 µM,–,> 100 µM,–,> 100 µM,–,> 100 µM,–,> 100 µM,–,> 100 µM,–,> 100 µM,–,> 100 µM
Cc1cccc(N2C(=O)C(Cl)=C(Cl)C2=O)c1,–,> 100 µM,–,> 59.4 µM,–,> 61 µM,–,> 100 µM,–,> 100 µM,–,> 100 µM,–,> 100 µM,–,> 58.4 µM,–,> 100 µM,–,> 100 µM
CC[C@H](C)[C@H](NC(=O)[C@H]1CCCCN1C)C(=O)N(C)[C@H](CCc1nc(C(=O)N[C@@H](Cc2ccccc2)C[C@H](C)C(=O)OC)cs1)C(C)C,0.694 µM,> 13.4 µM,3.71 µM,> 25 µM,0.265 µM,> 25 µM,0.118 µM,> 5.35 µM,0.261 µM,> 25 µM,4.43 µM,> 25 µM,0.0986 µM,> 25 µM,0.712 µM,> 25 µM,1.07 µM,> 12.4 µM,7.35 µM,> 25 µM
O=c1[nH]c(=O)n(C2CC(O)C(CS)O2)cc1F (stereo not given),–,> 100 µM,–,> 100 µM,–,> 100 µM,–,> 100 µM,–,> 100 µM,–,> 100 µM,–,> 100 µM,–,> 100 µM,–,> 100 µM,–,> 100 µM
CCCNC(=S)N/N=C(\C)c1ccccn1,0.523 µM,> 100 µM,2.11 µM,> 100 µM,0.018 µM,> 100 µM,< 0.01 µM,> 100 µM,0.426 µM,> 100 µM,0.038 µM,1.38 µM,0.192 µM,3.28 µM,0.0514 µM,> 100 µM,0.291 µM,4.79 µM,0.71 µM,> 100 µM
COC(=O)C1=C(c2ccc3c(c2)OCO3)O[C@H](c2ccc3c(c2)OCO3)[C@H]1COC(C)=O,–,> 100 µM,–,> 100 µM,–,> 100 µM,–,> 100 µM,–,> 100 µM,–,> 100 µM,–,> 100 µM,–,> 100 µM,–,> 100 µM,–,> 100 µM
COc1ccc(C2CC(=O)c3c(O)c(OC)c(OC)c(OC)c3O2)c(O)c1 (stereo not given),0.761 µM,27.2 µM,13.1 µM,26.7 µM,0.134 µM,31.5 µM,0.053 µM,60.9 µM,0.0693 µM,15.7 µM,–,–,0.0566 µM,20.2 µM,0.0498 µM,17.8 µM,4.49 µM,24.7 µM,4.96 µM,49 µM
Cc1cc(NS(=O)(=O)c2ccc(NC(=O)c3cccc4c(=O)c5ccccc5[nH]c34)cc2)no1,–,> 100 µM,–,> 100 µM,–,94.2 µM,–,> 100 µM,–,> 100 µM,–,> 100 µM,–,66.8 µM,–,> 100 µM,–,> 100 µM,–,> 100 µM
O=S(O)CCCCSSCCCCSSCCCCS(=O)O,–,> 100 µM,–,84.2 µM,–,64.6 µM,–,> 100 µM,–,> 100 µM,–,> 100 µM,–,55.3 µM,–,> 100 µM,–,–,–,91.4 µM
COc1cccc(N=Cc2c3ccccc3c(=O)n3c2oc2ccccc23)c1,6.81 µM,44.9 µM,–,–,4.58 µM,73.2 µM,5.62 µM,> 100 µM,3.78 µM,42.8 µM,–,–,2.58 µM,12.9 µM,14.4 µM,> 100 µM,–,–,2.95 µM,7.69 µM
CC(C)(C)OC(=O)N(CCCN(CCn1c2c(c3ccccc3c1=O)C(=O)c1ccccc1-2)C(=O)OC(C)(C)C)CCn1c2c(c3ccccc3c1=O)C(=O)c1ccccc1-2,–,–,> 50 µM,> 50 µM,13.3 µM,> 50 µM,22.7 µM,> 50 µM,> 50 µM,> 50 µM,> 50 µM,> 50 µM,> 50 µM,> 50 µM,31.1 µM,> 50 µM,> 50 µM,> 50 µM,> 50 µM,> 50 µM
CCOC(=O)[C@H]1Nc2ccc(C)cc2C2c3ccccc3CC21 (stereo not given in full),–,> 100 µM,–,> 100 µM,–,–,–,> 100 µM,–,> 100 µM,–,> 100 µM,–,> 100 µM,–,> 100 µM,–,> 100 µM,–,> 100 µM
CC#CC(=O)Nc1ccccc1CC(c1c[nH]c2ccccc12)c1c[nH]c2ccccc12,–,32.7 µM,–,32.3 µM,–,39.4 µM,–,–,–,53.6 µM,–,57.4 µM,–,28.3 µM,–,32.8 µM,–,32.6 µM,–,92.3 µM
CN(C)C(=S)/N=c1\ss/c(=N\C(=S)N(C)C)n1-c1ccc2c(c1)OCO2,–,> 100 µM,–,> 100 µM,–,–,–,> 100 µM,–,> 100 µM,–,> 100 µM,–,> 100 µM,–,> 100 µM,–,> 100 µM,–,> 100 µM
